For 28 molecules, IC50 results are on record in patent publication US9567302B2, “Carbamate compounds and of making and using same” (Abide Therapeutics, Inc., priority 2012, dated 2017).

Molecules are shown by their SMILES. Where only a bound is given, the exact number is not on record here.

Assay type in all cases: biochemical
What all share (design): from tissue; host or cells: mouse brain membrane fraction

One test deals with T1, ABHD6 (Mus musculus, UniProt Q8R2Y0).
T1 sequence (Q8R2Y0 1-336): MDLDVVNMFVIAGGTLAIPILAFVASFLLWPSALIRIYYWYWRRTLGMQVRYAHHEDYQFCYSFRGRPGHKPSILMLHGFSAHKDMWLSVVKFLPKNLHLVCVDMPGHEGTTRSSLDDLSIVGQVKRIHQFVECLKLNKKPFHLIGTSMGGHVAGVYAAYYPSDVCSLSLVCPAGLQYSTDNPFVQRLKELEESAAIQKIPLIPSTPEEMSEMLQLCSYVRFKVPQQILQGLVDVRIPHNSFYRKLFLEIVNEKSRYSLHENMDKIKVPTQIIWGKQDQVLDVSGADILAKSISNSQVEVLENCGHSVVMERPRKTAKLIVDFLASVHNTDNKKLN
In words: In vitro competitive activity-based protein profiling (FP-Rh), mouse ABHD6. Conditions: Table 1, mouse proteome, 30 min preincubation at 37° C. On the procedure:
(§1) In Vitro Competitive Activity-Based Protein Profiling.
(§2) Proteomes (mouse brain membrane fraction or cell lysates) (50 μL, 1.0 mg/ml total protein concentration) were preincubated with varying concentrations of inhibitors at 37° C. After 30 min, FP-Rh (1.0 μL, 50 μM in DMSO) was added and the mixture was incubated for another 30 min at 37° C. Reactions were quenched with SDS loading buffer (50 μL—4×) and run on SDS-PAGE.

In the next test the target is T2, FAAH (Mus musculus, UniProt O08914).
T2 sequence (O08914 1-579): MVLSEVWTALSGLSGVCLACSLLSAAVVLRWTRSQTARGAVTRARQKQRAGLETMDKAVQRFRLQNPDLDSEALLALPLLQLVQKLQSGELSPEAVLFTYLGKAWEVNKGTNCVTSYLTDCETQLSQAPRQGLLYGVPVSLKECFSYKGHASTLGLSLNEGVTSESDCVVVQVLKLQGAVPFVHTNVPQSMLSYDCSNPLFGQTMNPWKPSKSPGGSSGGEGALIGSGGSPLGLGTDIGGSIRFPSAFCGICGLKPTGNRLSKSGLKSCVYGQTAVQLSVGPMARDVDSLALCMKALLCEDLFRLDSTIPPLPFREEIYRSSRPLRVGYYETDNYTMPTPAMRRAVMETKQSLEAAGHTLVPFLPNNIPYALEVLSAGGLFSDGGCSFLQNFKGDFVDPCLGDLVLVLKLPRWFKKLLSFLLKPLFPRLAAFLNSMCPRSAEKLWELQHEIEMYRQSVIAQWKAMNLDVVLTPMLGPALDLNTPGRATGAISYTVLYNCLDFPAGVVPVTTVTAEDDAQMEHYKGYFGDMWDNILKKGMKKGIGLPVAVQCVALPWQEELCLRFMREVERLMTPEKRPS
In words: In vitro competitive activity-based protein profiling (FP-Rh), mouse FAAH. Conditions: Table 1, mouse proteome, 30 min preincubation at 37° C. On the procedure: as §1, §2

For a further test, the target named is T3, MAGL (Mus musculus, UniProt O35678).
T3 sequence (O35678 1-303): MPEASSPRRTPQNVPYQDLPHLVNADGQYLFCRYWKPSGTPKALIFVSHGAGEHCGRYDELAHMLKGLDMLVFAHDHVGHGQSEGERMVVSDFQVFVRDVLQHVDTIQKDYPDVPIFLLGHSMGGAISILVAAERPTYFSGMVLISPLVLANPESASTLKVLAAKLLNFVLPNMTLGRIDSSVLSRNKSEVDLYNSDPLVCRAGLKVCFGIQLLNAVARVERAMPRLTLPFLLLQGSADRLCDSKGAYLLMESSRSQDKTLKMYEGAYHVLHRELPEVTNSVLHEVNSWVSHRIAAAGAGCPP
Description: In vitro competitive activity-based protein profiling (FP-Rh), mouse MAGL. Conditions: 30 min preincubation at 37° C. On the procedure: as §1, §2

The term IC50 denotes the point on the concentration scale where inhibition reaches its midpoint. A low value points to greater potency in that assay.

In the case of `O=C(ON1C(=O)CCC1=O)N1CCN(C(c2ccc(Cl)cc2)c2ccc(Cl)cc2)CC1` [Example 2, 2,5-Dioxopyrrolidin-1-yl 4-[bis(4-chlorophenyl)methyl]piperazine-1-carboxylate], the IC50 on ABHD6 is 100 to 1000 nM; on FAAH, greater than 10000 nM.

As for `CC(C)(C)OC(=O)N1CCN(C(=O)ON2C(=O)CCC2=O)CC1` [Example 4, 1-tert-Butyl 4-(2,5-dioxopyrrolidin-1-yl) piperazine-1,4-dicarboxylate], the IC50 on ABHD6 was greater than 10000 nM; at FAAH, greater than 10000 nM; on MAGL (Table 1, mouse proteome) it was greater than 10000 nM.

As to `O=C(NCCc1ccc(Oc2ccccc2)cc1)ON1C(=O)CCC1=O` [Example 6, 2,5-Dioxopyrrolidin-1-yl N-[2-(4-phenoxyphenyl)ethyl]carbamate], the half-inhibitory concentration (IC50) on ABHD6 is greater than 10000 nM; at FAAH it was 100 to 1000 nM; on MAGL (Table 1, mouse proteome), greater than 10000 nM.

On to `CCN(Cc1ccccc1)C(=O)ON1C(=O)CCC1=O` [Example 9, 2,5-Dioxopyrrolidin-1-yl N-benzyl-N-ethylcarbamate], for which the half-maximal inhibitory concentration (IC50) on ABHD6 was greater than 10000 nM; at FAAH, greater than 10000 nM; on MAGL (Table 1, mouse proteome), greater than 10000 nM.

On to `CC1CCCCN1C(=O)ON1C(=O)CCC1=O` (centres unmarked) [Example 10, 2,5-Dioxopyrrolidin-1-yl 2-methylpiperidine-1-carboxylate], for which the IC50 was greater than 10000 nM on ABHD6; greater than 10000 nM at FAAH; greater than 10000 nM on MAGL (Table 1, mouse proteome).

As for `O=C1CCC(=O)N1OC(=O)N1CCCCC1CO` (centres unmarked) [Example 11, 2,5-Dioxopyrrolidin-1-yl 2-(hydroxymethyl)piperidine-1-carboxylate], the IC50 was greater than 10000 nM on ABHD6; greater than 10000 nM at FAAH; greater than 10000 nM on MAGL (Table 1, mouse proteome).

In the case of `CN(Cc1cccc(-c2ccncc2)c1)C(=O)ON1C(=O)CCC1=O` [Example 12, 2,5-Dioxopyrrolidin-1-yl N-methyl-N-{[3-(pyridin-4-yl)phenyl]methyl}carbamate], the half-maximal inhibitory concentration (IC50) on ABHD6 was 100 to 1000 nM; on FAAH, greater than 10000 nM; at MAGL (Table 1, mouse proteome) it was 1000 to 10000 nM.

For the molecule `CN(Cc1cccc(-c2cccnc2)c1)C(=O)ON1C(=O)CCC1=O` [Example 13, 2,5-Dioxopyrrolidin-1-yl N-methyl-N-{[3-(pyridin-3-yl)phenyl]methyl}carbamate], the half-inhibitory concentration (IC50) on ABHD6 is greater than 10000 nM; on FAAH, greater than 10000 nM; on MAGL (Table 1, mouse proteome) it was greater than 10000 nM.

For the molecule `Cc1nc(-c2cccc(CN(C)C(=O)ON3C(=O)CCC3=O)c2)no1` [Example 14, 2,5-Dioxopyrrolidin-1-yl N-methyl-N-{[3-(5-methyl-1,2,4-oxadiazol-3-yl)phenyl]methyl}carbamate], the concentration for half-maximal inhibition (IC50) at ABHD6 is 100 to 1000 nM; at FAAH, greater than 10000 nM; on MAGL (Table 1, mouse proteome), 1000 to 10000 nM.

As to `CN(CCc1ccccc1)C(=O)ON1C(=O)CCC1=O` [Example 15, 2,5-Dioxopyrrolidin-1-yl N-methyl-N-(2-phenylethyl)carbamate], the IC50 at ABHD6 was greater than 10000 nM; at FAAH it was greater than 10000 nM; at MAGL (Table 1, mouse proteome) it was greater than 10000 nM.

As for `O=C(C1CCCCN1C(=O)ON1C(=O)CCC1=O)N1CCOCC1` (centres unmarked) [Example 16, 2,5-Dioxopyrrolidin-1-yl 2-(morpholine-4-carbonyl)piperidine-1-carboxylate], the IC50 on ABHD6 was greater than 10000 nM; at FAAH, greater than 10000 nM; at MAGL (Table 1, mouse proteome) it was greater than 10000 nM.

`O=C(ON1C(=O)CCC1=O)N1CCCCC1` [Example 17, 2,5-Dioxopyrrolidin-1-yl piperidine-1-carboxylate]: the IC50 at FAAH is greater than 10000 nM; on MAGL (Table 1, mouse proteome), greater than 10000 nM.

For `Cc1cc(N2CCN(C(=O)ON3C(=O)CCC3=O)CC2)c2ccccc2n1` [Example 18, 2,5-Dioxopyrrolidin-1-yl 4-(2-methylquinolin-4-yl)piperazine-1-carboxylate], the IC50 was 1000 to 10000 nM at ABHD6; greater than 10000 nM on FAAH; 100 to 1000 nM on MAGL (Table 1, mouse proteome).

With `CCCN(Cc1ccc(N2CCCCC2)cc1)C(=O)ON1C(=O)CCC1=O` [Example 19, 2,5-Dioxopyrrolidin-1-yl N-{[4-(piperidin-1-yl)phenyl]methyl}-N-propylcarbamate], the IC50 at ABHD6 is greater than 10000 nM; at FAAH, greater than 10000 nM; at MAGL (Table 1, mouse proteome), greater than 10000 nM.

Take `O=C(NC1CCCc2ccccc21)ON1C(=O)CCC1=O` (centres unmarked) [Example 20, 2,5-Dioxopyrrolidin-1-yl N-(1,2,3,4-tetrahydronaphthalen-1-yl)carbamate]: the 50% inhibitory concentration (IC50) was greater than 10000 nM on ABHD6; greater than 10000 nM on FAAH; greater than 10000 nM on MAGL (Table 1, mouse proteome).

For `O=C(ON1C(=O)CCC1=O)N1CCC(Cc2ccccc2)CC1` [Example 21, 2,5-Dioxopyrrolidin-1-yl 4-benzylpiperidine-1-carboxylate], the IC50 on ABHD6 is 100 to 1000 nM; on FAAH it was 1000 to 10000 nM; at MAGL (Table 1, mouse proteome), 100 to 1000 nM.

For `O=C1CCC(=O)N1OC(=O)N1CCCCC1Cc1ccccc1` (centres unmarked) [Example 22, 2,5-Dioxopyrrolidin-1-yl 2-benzylpiperidine-1-carboxylate], the IC50 was greater than 10000 nM at ABHD6; greater than 10000 nM at FAAH; greater than 10000 nM at MAGL (Table 1, mouse proteome).

Consider `O=C1CCC(=O)N1OC(=O)N1CCCCC1c1ccccc1` (centres unmarked) [Example 23, 2,5-Dioxopyrrolidin-1-yl 2-phenylpiperidine-1-carboxylate], for which the IC50 on ABHD6 was greater than 10000 nM; on FAAH, greater than 10000 nM; at MAGL (Table 1, mouse proteome), greater than 10000 nM.

As to `O=C(NCCc1ccc2ccccc2c1)ON1C(=O)CCC1=O` [Example 27, 2,5-Dioxopyrrolidin-1-yl N-[2-(naphthalen-2-yl)ethyl]carbamate], the concentration for half-maximal inhibition (IC50) was greater than 10000 nM at ABHD6 and greater than 10000 nM at MAGL (Table 1, mouse proteome).

In the case of `O=C(ON1C(=O)CCC1=O)N1CC[C@@H](OCc2ccccc2)C1` [Example 39, 2,5-Dioxopyrrolidin-1-yl (3R)-3-(benzyloxy)pyrrolidine-1-carboxylate], the IC50 at FAAH is greater than 10000 nM; on MAGL (Table 1, mouse proteome) it was greater than 10000 nM.

For the molecule `O=C(ON1C(=O)CCC1=O)N1CC[C@H](OCc2ccccc2)C1` [Example 40, 2,5-Dioxopyrrolidin-1-yl (3S)-3-(benzyloxy)pyrrolidine-1-carboxylate], the IC50 on FAAH was greater than 10000 nM; at MAGL (Table 1, mouse proteome), greater than 10000 nM.

Take `CN(C)C(=O)ON1C(=O)CNC1=O` [Example 58, 2,5-Dioxoimidazolidin-1-yl dimethylcarbamate]: the IC50 at FAAH was greater than 10000 nM.

Molecule `Cc1cc(N2CCOCC2)ccc1CN1CCN(C(=O)ON2C(=O)CCC2=O)CC1` [Example 63, 2,5-Dioxopyrrolidin-1-yl 4-(2-methyl-4-morpholinobenzyl)piperazine-1-carboxylate] yielded an IC50 on MAGL (Table 2, mouse proteome) of 1000 to 10000 nM.

In the case of `O=C(ON1C(=O)CCC1=O)N1CCN(Cc2ccc(Cl)cc2)CC1` [Example 64, 2,5-Dioxopyrrolidin-1-yl 4-(4-chlorobenzyl)piperazine-1-carboxylate], the IC50 at MAGL (Table 2, mouse proteome) was 100 to 1000 nM.

As for `O=C(ON1C(=O)CCC1=O)N1CCN(Cc2ccc(Br)cc2N2CCCC2)CC1` [Example 72, 2,5-Dioxopyrrolidin-1-yl 4-(4-bromo-2-(pyrrolidin-1-yl)benzyl)piperazine-1-carboxylate], the half-maximal inhibitory concentration (IC50) at MAGL (Table 2, mouse proteome) is less than 100 nM.

Consider `CC1CN(C(=O)ON2C(=O)CCC2=O)CCN1C(c1ccc(Cl)cc1)c1ccc(Cl)cc1` (centres unmarked) [Example 151, 2,5-Dioxopyrrolidin-1-yl 4-[bis(4-chlorophenyl)methyl]-3-methylpiperazine-1-carboxylate], for which the concentration for half-maximal inhibition (IC50) on MAGL (Table 2, mouse proteome) fell in the range of 100 to 1000 nM.

As to `CC1CN(C(=O)ON2C(=O)CCC2=O)CCN1Cc1ccc(-c2ccccc2)cc1` (centres unmarked) [Example 160, 2,5-Dioxopyrrolidin-1-yl 3-methyl-4-[(4-phenylphenyl)methyl]piperazine-1-carboxylate], the 50% inhibitory concentration (IC50) on MAGL (Table 2, mouse proteome) was 100 to 1000 nM.

At MAGL (Table 2, mouse proteome), `O=C(ON1C(=O)CCC1=O)N1CCN(Cc2ccc(-c3ccccc3)cc2N2CCOCC2)CC1` [Example 161, 2,5-Dioxopyrrolidin-1-yl 4-((3-morpholino-[1,1′-biphenyl]-4-yl)methyl)piperazine-1-carboxylate] displayed a half-inhibitory concentration (IC50) of 100 to 1000 nM.
